# Measured values taken from ChEMBL document CHEMBL4043123, “α-Geminal disubstituted pyrrolidine iminosugars and their C-4-fluoro analogues: Synthesis, glycosidase inhibition and molecular docking studies” (Bioorg Med Chem, 2017).
# Active and inactive are the calls of the source. The calls are words filed in the database; no cut-off is given here.
# Legend:
# Saccharomyces cerevisiae = assay: Inhibition of yeast alpha-glucosidase at 1 mM pre-incubated for 1 hr followed by p-nitrophenyl-alpha-D-glucopyranoside substrate addition by fluorescence detection based assay
# Escherichia coli = assay: Inhibition of Escherichia coli beta-galactosidase at 1 mM pre-incubated for 1 hr followed by p-nitrophenyl-beta-D-galactopyranoside substrate addition by fluorescence detection based assay
# [1] = target: T1, Alpha-mannosidase (Canavalia ensiformis) (UniProt C0HJB3); assay: Inhibition of jack beans alpha-mannosidase […] at 1 mM pre-incubated for 1 hr followed by […] substrate addition by fluorescence detection based assay
# T1 sequence (whole entry): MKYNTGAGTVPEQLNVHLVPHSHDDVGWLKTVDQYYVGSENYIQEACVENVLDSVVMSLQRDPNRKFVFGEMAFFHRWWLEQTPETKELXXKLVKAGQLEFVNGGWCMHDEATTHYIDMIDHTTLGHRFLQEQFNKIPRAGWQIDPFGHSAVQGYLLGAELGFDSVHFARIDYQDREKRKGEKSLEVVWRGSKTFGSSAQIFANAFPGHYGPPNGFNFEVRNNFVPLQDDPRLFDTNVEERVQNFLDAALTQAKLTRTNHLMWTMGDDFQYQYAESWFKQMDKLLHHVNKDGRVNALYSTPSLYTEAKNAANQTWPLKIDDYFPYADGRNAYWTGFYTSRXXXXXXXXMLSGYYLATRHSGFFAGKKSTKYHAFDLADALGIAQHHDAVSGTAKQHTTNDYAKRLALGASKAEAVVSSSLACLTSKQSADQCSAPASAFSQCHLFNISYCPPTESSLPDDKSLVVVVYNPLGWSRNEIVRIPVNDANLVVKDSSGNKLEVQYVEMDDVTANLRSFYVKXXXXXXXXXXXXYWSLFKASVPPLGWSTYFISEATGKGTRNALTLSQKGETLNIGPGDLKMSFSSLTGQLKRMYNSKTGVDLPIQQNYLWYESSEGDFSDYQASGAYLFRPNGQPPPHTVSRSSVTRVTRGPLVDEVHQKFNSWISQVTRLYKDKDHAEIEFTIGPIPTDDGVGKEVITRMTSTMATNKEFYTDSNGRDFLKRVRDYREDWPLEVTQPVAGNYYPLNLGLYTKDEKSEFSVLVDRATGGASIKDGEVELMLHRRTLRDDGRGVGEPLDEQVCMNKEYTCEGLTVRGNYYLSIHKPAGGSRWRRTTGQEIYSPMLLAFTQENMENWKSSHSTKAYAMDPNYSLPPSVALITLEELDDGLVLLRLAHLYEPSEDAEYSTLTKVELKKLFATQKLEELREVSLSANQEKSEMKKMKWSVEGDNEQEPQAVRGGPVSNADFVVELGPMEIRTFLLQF
# [2] = Competitive inhibition of almond beta-glucosidase pre-incubated for 1 hr followed by p-nitrophenyl-beta-D-glucopyranoside, substrate addition by fluorescence detection based assay; design: species or system Prunus dulcis
# [3] = Inhibition of rice alpha-glucosidase pre-incubated for 1 hr followed by p-nitrophenyl-alpha-D-glucopyranoside substrate addition by fluorescence detection based assay; design: species or system Oryza sativa
# [4] = target: Alpha-galactosidase (Coffea arabica) (UniProt Q42656); assay: Inhibition of coffee beans alpha-galactosidase at 1 mM pre-incubated for 1 hr followed by p-nitrophenyl-alpha-D-galactopyranoside substrate addition by fluorescence detection based assay
# Chain of Alpha-galactosidase (Coffea arabica) (Q42656 16-378 limits assumed): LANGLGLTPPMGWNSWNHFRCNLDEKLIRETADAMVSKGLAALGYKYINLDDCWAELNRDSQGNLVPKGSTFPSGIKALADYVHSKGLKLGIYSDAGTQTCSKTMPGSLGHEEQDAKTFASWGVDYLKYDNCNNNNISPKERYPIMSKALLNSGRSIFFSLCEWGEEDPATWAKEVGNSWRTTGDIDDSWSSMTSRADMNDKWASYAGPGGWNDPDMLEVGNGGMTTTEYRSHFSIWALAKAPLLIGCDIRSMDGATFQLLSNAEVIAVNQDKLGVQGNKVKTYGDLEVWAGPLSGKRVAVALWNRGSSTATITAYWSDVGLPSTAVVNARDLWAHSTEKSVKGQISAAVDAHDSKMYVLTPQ
# Prunus dulcis = assay: Inhibition of almond beta-glucosidase at 1 mM pre-incubated for 1 hr followed by p-nitrophenyl-beta-D-glucopyranoside, substrate addition by fluorescence detection based assay
# [5] = Inhibition of almond beta-glucosidase pre-incubated for 1 hr followed by p-nitrophenyl-beta-D-glucopyranoside, substrate addition by fluorescence detection based assay; design: species or system Prunus dulcis
# Oryza sativa = assay: Inhibition of rice alpha-glucosidase at 1 mM pre-incubated for 1 hr followed by p-nitrophenyl-alpha-D-glucopyranoside substrate addition by fluorescence detection based assay
# Alpha-galactosidase [6] = target: T2, Alpha-galactosidase (Coffea arabica, UniProt Q42656); assay: Competitive inhibition of coffee beans alpha-galactosidase pre-incubated for 1 hr followed by p-nitrophenyl-alpha-D-galactopyranoside substrate addition by fluorescence detection based assay
# T2 sequence (Q42656 whole entry): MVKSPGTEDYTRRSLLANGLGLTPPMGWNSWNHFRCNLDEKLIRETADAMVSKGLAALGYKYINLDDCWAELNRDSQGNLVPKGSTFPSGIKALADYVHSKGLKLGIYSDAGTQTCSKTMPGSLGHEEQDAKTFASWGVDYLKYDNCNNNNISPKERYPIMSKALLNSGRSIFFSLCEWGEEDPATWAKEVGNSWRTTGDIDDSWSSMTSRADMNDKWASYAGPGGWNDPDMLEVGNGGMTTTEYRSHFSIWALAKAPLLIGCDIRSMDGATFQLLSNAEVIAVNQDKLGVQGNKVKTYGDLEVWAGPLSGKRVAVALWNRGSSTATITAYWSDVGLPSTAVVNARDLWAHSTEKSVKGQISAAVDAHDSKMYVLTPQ
# Alpha-galactosidase [7] = target: T2, Alpha-galactosidase; assay: Inhibition of coffee beans alpha-galactosidase pre-incubated for 1 hr followed by p-nitrophenyl-alpha-D-galactopyranoside substrate addition by fluorescence detection based assay
# [8] = Inhibition of yeast alpha-glucosidase pre-incubated for 1 hr followed by p-nitrophenyl-alpha-D-glucopyranoside substrate addition by fluorescence detection based assay; design: species or system Saccharomyces cerevisiae
# [9] = Competitive inhibition of Escherichia coli beta-galactosidase pre-incubated for 1 hr followed by p-nitrophenyl-beta-D-galactopyranoside substrate addition by fluorescence detection based assay
inhibition (Saccharomyces cerevisiae),inhibition (Escherichia coli),inhibition [1],IC50 [2] [nM],Ki [2] [nM],IC50 [3] [nM],Ki [3] [nM],inhibition [4],inhibition (Prunus dulcis),IC50 [5] [nM],Ki [5] [nM],inhibition (Oryza sativa),IC50 (Alpha-galactosidase [6]) [nM],Ki (Alpha-galactosidase [6]) [nM],IC50 (Alpha-galactosidase [7]) [nM],Ki (Alpha-galactosidase [7]) [nM],IC50 [8] [nM],Ki [8] [nM],IC50 [9] [nM],SMILES,Ki [9] [nM]
inactive,inactive,inactive,184,144,463000,376000,inactive,–,–,–,–,–,–,–,–,–,–,–,OCC1(CO)NC[C@H](F)[C@H]1O,–
inactive,inactive,inactive,–,–,50,28,inactive,inactive,–,–,–,–,–,–,–,–,–,–,OCCN1C[C@H](O)[C@@H](O)[C@H](O)[C@H]1CO [MIGLITOL],–
inactive,inactive,inactive,–,–,–,–,–,–,445000,349000,inactive,79,62,–,–,–,–,–,O=C(O)[C@@]1(CO)NC[C@@H](O)[C@H]1O,–
inactive,inactive,inactive,–,–,–,–,–,inactive,–,–,inactive,–,–,392000,364000,–,–,–,O=C(O)[C@@]1(CO)NC[C@H](F)[C@H]1O,–
inactive,inactive,inactive,–,–,–,–,–,inactive,–,–,inactive,16,8,–,–,–,–,–,OCC1(CO)NC[C@@H](O)[C@H]1O,–
–,inactive,inactive,–,–,–,–,inactive,inactive,–,–,inactive,–,–,–,–,763000,619000,–,O=C(O)[C@]1(CO)NC[C@@H](O)[C@H]1O,–
inactive,–,inactive,–,–,–,–,inactive,inactive,–,–,inactive,–,–,–,–,–,–,65,O=C(O)[C@]1(CO)NC[C@H](F)[C@H]1O,51
